# Read-outs that look alike come from different tables or passages of the source.
# Tests used:
# [1] = sublingual drops, cited from earlier work
# [2] = Pharmacokinetic studies for CBD- and THC-loaded SEDDS based on tributyrin; conditions: oral, 0.125 mg THC/2.5 mg CBD (CBD:THC 20:1)
# Description: The PK studies were carried out on rats. Three animals were used in each time point. At each test point, animals were sacrificed and blood (5-6 ml) withdrawn from the heart and collected in heparinized tubes.
# Each rat was orally administered with 1 mil of the test formulation. Blood samples were withdrawn at different time points: 0, 0.5, 1, 2, 4, 6, 10 and 24 hours. The blood samples were centrifuged at 4000 rpm and the plasma was separated and collected in clean polyethylene tubes and kept at −80° C. until analysis using LC-MS/MS.
# TB1 liquid SEDDS formulations were tested: 200 parts tributyrin, 350 parts Cremophor RH40, 350 parts PEG400, 350 parts PG.
# The HPLC system consisted of a Dionex/Thermo Scientific UltiMate 3000 UHPLC systems fitted with a 100 μL sample loop, Dionex™ UltiMate™ 3000 Rapid Separation Diode Array Detector, and integration software Chromeleon Chromatography Data System (CDS).
# Chromatographic separation was performed with guard column Luna® 5 μm C18(2) 100 Å, LC Column 150×4.6 mm, using an isocratic mobile phase of water (0.1% formic acid): acetonitrile (0.1% formic acid) 10:90 at a flow rate of 1 mL/min for 10 in minisocratic condition. The column temperature was 40° C. and the injection volume was 100 μL.
# Dual ion electrospray ionization (DUIS) in positive was used for ionization of the analytes on the ISQ™ EC. […]
compound,measurement,setting,value
"C=C(C)[C@@H]1CCC(C)=C[C@H]1c1c(O)cc(CCCCC)cc1O [CBD, cannabidiol]",Cmax,[1]; CBD dose 10 mg,2.05 ng/mL
same,Tmax,[1]; CBD dose 10 mg,2.17 h
same,Cmax,[1]; CBD dose 20 mg,2.58 ng/mL
same,Tmax,[1]; CBD dose 20 mg,1.67 h
"CCCCCc1cc(O)c2c(c1)OC(C)(C)[C@@H]1CCC(C)=C[C@@H]21 [THC, tetrahydrocannabinol]",Tmax,"[2]; Table 20, THC, semi-solid SEDDS",2.00 h
same,C1/F_obs,"[2]; Table 21-2, THC in tributyrin as a carrier (reference)",66.835 mL/min/kg

# — patent US20220202712A1, “SELF-EMULSIFYING DRUG DELIVERY SYSTEMS FOR DELIVERY OF LIPOPHILIC COMPOUNDS” (Yissum Research Development Company of the Hebrew …, priority 2019, published 2022)
